Measurements taken from patent publication US20240245639A1, “Dermal Application of Retinoic Acid Receptor Agonists for Amelioration of Hypertrophic Scar” (Northwestern University, priority 2023, published 2024).

How the values were obtained:
[1] = test system: primary human foreskin fibroblasts; assay: Antagonism of fibroblast activation in presence or absence of TGF-β1 (qRT-PCR, Western blot, immunofluorescence); format: cell-based
[2] = test system: primary human keloid fibroblasts; assay: Collagen I deposition in keloid fibroblasts (Western blot, immunofluorescence); format: cell-based; settings: keloid fibroblasts, 1,000 nM Ch55, presence and absence of TGF-β1, 48 hours
Experimental: (§1) Since overproduction of collagen is characteristic of fibroblasts in tissue fibrosis, including hypertrophic scar and keloid, we wished to determine whether Ch55 also affects deposition of collagen I by these fibroblasts.
(§2) Cells cultured on glass coverslips were fixed in 4% paraformaldehyde for 30 minutes at room temperature. Cells were blocked in 10% normal goat serum and incubated overnight at 4° C. in solutions of the following primary antibodies: Rabbit monoclonal α-human α-SMA (1:500 dilution, catalog #192455, Cell Signaling Technology, Danvers M A) or mouse α-human COL1A1 (1:1000 dilution, catalog #M-38c, DSHB, Iowa City, IA). The following day, cells were incubated in 1:200 diluted solutions of goat-α-rabbit IgG or donkey-α-mouse IgG Alexafluor 488-conjugated secondary antibodies (A11034 or A21202, Invitrogen) containing Alexafluor 568-conjugated phalloidin (A12380, Invitrogen) for 2 hours in the dark at room temperature, before a 20 minute counterstain in 500 ng/mL DAPI. […]
(§3) Harvested scar tissues were incubated in 0.5M ammonium thiocyanate for 20 minutes, followed by mechanical separation of dermis and epidermis using a dissecting microscope. […] Protein concentrations of cell culture and tissue samples were determined using a DC protein assay (BioRad). […]

[3] = test system: primary human foreskin fibroblasts; assay: Antagonism of fibroblast activation in presence or absence of TGF-β1 (qRT-PCR, Western blot, immunofluorescence); format: cell-based; settings: 1,000 nM Ch55, presence and absence of TGF-β1, 48 hours
Experimental: RAR Agonist all-Trans Retinoic Acid Antagonizes Myofibroblast Activation We then wished to see whether another RAR agonist could antagonize myofibroblast activation.
Cells cultured on glass coverslips were fixed in 4% paraformaldehyde for 30 minutes at room temperature. Cells were blocked in 10% normal goat serum and incubated overnight at 4° C. in solutions of the following primary antibodies: Rabbit monoclonal α-human α-SMA (1:500 dilution, catalog #192455, Cell Signaling Technology, Danvers M A) or mouse α-human COL1A1 (1:1000 dilution, catalog #M-38c, DSHB, Iowa City, IA). The following day, cells were incubated in 1:200 diluted solutions of goat-α-rabbit IgG or donkey-α-mouse IgG Alexafluor 488-conjugated secondary antibodies (A11034 or A21202, Invitrogen) containing Alexafluor 568-conjugated phalloidin (A12380, Invitrogen) for 2 hours in the dark at room temperature, before a 20 minute counterstain in 500 ng/mL DAPI. Coverslips were mounted onto slides in the dark using Fluoro Gel with DABCO (Electron Microscopy Sciences, Hatfield, PA) and imaged on an EVOS-FL imaging system (ThermoFisher).
Harvested scar tissues were incubated in 0.5M ammonium thiocyanate for 20 minutes, followed by mechanical separation of dermis and epidermis using a dissecting microscope. Isolated dermal tissues were minced with a razor blade, submerged in RIPA buffer, and homogenized in the presence of 2 mm zirconia beads using a MagNA Lyser (Roche, Basel, Switzerland). Alternatively, cell culture samples were detached from the culture surface by trypsinization, collected by centrifugation, and lysed in RIPA buffer. Protein concentrations of cell culture and tissue samples were determined using a DC protein assay (BioRad). Five micrograms of total protein were loaded onto polyacrylamide gels and subjected to SDS-PAGE before transfer to nitrocellulose membranes, blocking with 5% dry milk in TBS-T, and probing with target-specific primary antibodies overnight. Species-specific secondary antibody solutions were added to membranes, and chemiluminescent signal was developed with Amersham ECL Western blotting detection reagent using X-ray film.
Primary antibodies used were rabbit anti-α-SMA (1:1000, 19245S, Cell Signaling Technology), rabbit anti-collagen I (1:1000, ab34710, Abcam), mouse anti-collagen I (1:1000, C2456, Sigma-Aldrich), and mouse anti-GAPDH (1:5000, MA5-15738, Invitrogen). Secondary antibodies utilized were HRP goat anti-rabbit IgG(H+L) and horse anti-mouse IgG(H+L) (Vector Laboratories, Newark, CA), both used at 1:5000.

RAR-β = molecular target: T1, RAR-β (Homo sapiens, UniProt P10826); settings: cited from earlier work
T1 sequence (P10826 1-455): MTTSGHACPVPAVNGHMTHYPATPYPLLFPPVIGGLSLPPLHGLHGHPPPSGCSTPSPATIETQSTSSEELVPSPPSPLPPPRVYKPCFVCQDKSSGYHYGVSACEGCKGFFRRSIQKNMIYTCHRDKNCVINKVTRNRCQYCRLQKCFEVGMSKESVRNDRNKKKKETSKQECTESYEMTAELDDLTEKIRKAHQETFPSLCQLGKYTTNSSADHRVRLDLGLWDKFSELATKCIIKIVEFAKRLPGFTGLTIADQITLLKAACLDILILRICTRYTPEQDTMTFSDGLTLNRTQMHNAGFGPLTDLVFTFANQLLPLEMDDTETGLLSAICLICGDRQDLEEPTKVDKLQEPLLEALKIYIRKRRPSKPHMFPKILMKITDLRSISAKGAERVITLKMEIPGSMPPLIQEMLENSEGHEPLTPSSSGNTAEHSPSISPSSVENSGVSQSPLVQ

[4] = test system: primary rabbit dermal fibroblasts; assay: Ch55 treatment of rabbit dermal fibroblasts (morphology, ACTA2 qRT-PCR); format: cell-based; settings: 1,000 nM, 24 hours
Experimental: (§4) Cell culture Primary human neonatal foreskin fibroblasts were obtained from the Skin Biology and Diseases Resource-based Center at Northwestern University. Primary rabbit dermal fibroblasts were isolated from female New Zealand White rabbits via harvesting full-thickness skin biopsies from rabbit ears, digesting overnight in a solution of 5 mg/mL dispase, and subsequently mechanically separating dermis from epidermis. After discarding epidermal tissue, dermal tissue was minced with a razor blade, and fibroblasts were liberated through collagenase-mediated digestion for growth in culture. […] Human fibroblasts and rabbit fibroblasts were cultured on tissue culture plastic (or, for immunofluorescence experiments, on glass coverslips) in DMEM+10% FBS and were serum starved in DMEM+0.1% FBS for 24 hours prior to drug treatments. When indicated, recombinant human TGF-β 1 was included in culture medium at a concentration of 10 ng/mL. Cultures were maintained in a humidified cell culture incubator at 37° C., 5% CO2, and ambient O2. For treatment with drugs and associated vehicle controls, the fraction of DMSO in the media was always maintained at <0.1% (v/v) in order to avoid confounding effects. […]

[5] = test system: primary human foreskin fibroblasts; settings: second donor, 1,000 nM, 24 hours
Experimental: as §4

[6] = test system: primary human foreskin fibroblasts; assay: In vitro single-concentration screen of predicted compounds (brightfield, qRT-PCR); format: cell-based; settings: single concentration, 24 hours, vs vehicle
Experimental: In order to initially test the identified drugs, we applied each drug or DMSO vehicle control at a single concentration to primary human foreskin fibroblasts in vitro for 24 hours, before harvesting and measuring relative expression of selected myofibroblast marker genes by qRT-PCR. […] None of the drugs tested appeared to affect expression of TGFB1 (the gene encoding transforming growth factor-beta 1) at the examined concentrations.
MATERIALS AND METHODS Materials Emetine dihydrochloride hydrate, homoharringtonine, Ch55 and panobinostat were acquired from Fisher Scientific (Waltham, MA). AZD-7762 was acquired from Selleck Chemicals (Houston, TX). For in vitro work, emetine dihydrochloride hydrate was dissolved in sterile H2O at 50 mM. Homoharringtonine was dissolved in DMSO at 10 mg/mL. Panobinostat was dissolved in DMSO at 425 μM. […] AZD-7762 was dissolved in DMSO at 500 μM. Recombinant human TGF-β1 (Sigma-Aldrich) was dissolved in sterile H2O at 50 µg/mL. All-trans-retinoic acid (Thermo Scientific) was dissolved in DMSO at 10 mM.

[7] = test system: cellular retinoic acid binding protein (CRABP); settings: cited from earlier work
[8] = test system: primary human HTS fibroblasts; assay: Collagen I deposition in hypertrophic scar fibroblasts (Western blot, immunofluorescence); format: cell-based; settings: HTS fibroblasts, 1,000 nM Ch55, presence and absence of TGF-β1, 48 hours
Experimental: as §1, §2, §3

[9] = 1,000 nM Ch55, ± 10 ng/mL TGF-β1, 24 hour
[10] = 1,000 nM Ch55, ± TGF-β1, 48 hours

SMILES: CC(C)(C)c1cc(C(=O)/C=C/c2ccc(C(=O)O)cc2)cc(C(C)(C)C)c1 [Ch55]
- spread area per cell (brightfield microscopy) ([1]; 1,000 nM Ch55, 48 hours): decreased
- deposition of collagen I (immunofluorescence) ([1]; 1,000 nM Ch55, presence and absence of TGF-β1, 48 hours): greatly diminished deposition
- basal and TGF-β1-induced expression of ACTA2 (qRT-PCR) [1, 9]: significantly downregulated
- basal and TGF-β1-induced expression of CCN2 (qRT-PCR) [1, 9]: significantly downregulated
- basal and TGF-β1-induced expression of SERPINE1 (qRT-PCR) [1, 9]: significantly downregulated
- collagen deposition as assessed by expression of type I collagen (Western blot) [1, 10]: dramatically antagonized
- fibroblast activation as assessed by expression of α-SMA (Western blot) [1, 10]: dramatically antagonized
- collagen I deposition (Western blot, immunofluorescence) [2]: dramatic reduction
- α-SMA protein in filamentous actin stress fibers (immunofluorescence) [3]: loss of α-SMA protein from filamentous actin stress fibers
- affinity for RAR-β (RAR-β): high affinity
- effects on morphology and ACTA2 expression [4]: comparable effects
- effects on morphology and gene expression in fibroblasts of another tissue donor [5]: comparable effects
- ACTA2 expression (qRT-PCR) [6]: clear and consistent downregulation
- CCN2 expression (qRT-PCR) [6]: clear and consistent downregulation
- MMP1 expression (qRT-PCR) [6]: without downregulating
- SERPINE1 expression (qRT-PCR) [6]: clear and consistent downregulation
- affinity for CRABP [7]: low affinity
- collagen I deposition (Western blot, immunofluorescence) [8]: dramatic reduction
